According to ChEMBL document CHEMBL3286227, “Guanidinium-based derivatives: searching for new kinase inhibitors” (Eur J Med Chem, 2014):
Active and inactive are the calls of the source. The calls are words filed in the database; no cut-off is given here.

Columns and labels:
HL-60 = test: Cytotoxicity against human HL60 cells after 72 hrs by Alamar Blue assay; format: functional, cell-based; conditions: HL-60, 72 h
[1] = molecular target: Glycogen synthase kinase-3 beta (Homo sapiens, UniProt P49841); test: Inhibition of human recombinant GSK-3 beta after 30 mins by luminescence assay
[2] = molecular target: Casein kinase I isoform delta (Homo sapiens, UniProt P48730); test: Inhibition of human recombinant casein kinase-1 delta using casein as substrate after 60 mins by kinase-glo luminescence assay
HUVEC = test: Inhibition of VEGFR in HUVEC using […] as substrate at 10 uM incubated for 20 mins prior to substrate addition relative to control; format: cell-based; conditions: Homo sapiens
[3] = molecular target: Serine/threonine-protein kinase RAF and Dual specificity mitogen-activated protein kinase kinase 1 (Raf/MEK) (Homo sapiens) (UniProt P04049+Q02750); test: Inhibition of RAF-1/MEK1 (unknown origin) assessed as at 10 uM after 5 mins by fluorescence assay relative to control; format: protein assay
[4] = molecular target: MAP kinase p38 (Homo sapiens) (UniProt O15264+Q15759+Q16539+P53778); test: Inhibition of P38 MAP kinase in human A431 cells using TNF-alpha as substrate at 10 uM incubated for 5 mins prior to substrate addition measured after 10 mins by fluorescence assay relative to control; format: cell-based; conditions: A-431
[5] = molecular target: Serine/threonine-protein kinase B-raf (Homo sapiens) (UniProt P15056); test: Competitive binding to B-RAF kinase (unknown origin) at 100 nM to 100 uM after 60 to 120 mins by FRET analysis
[6] = molecular target: Mitogen-activated protein kinase; ERK1/ERK2 (Homo sapiens) (UniProt P27361+P28482); test: Inhibition of ERK1/2 kinase in human A431 cells using EGF as substrate at 10 uM incubated for 5 mins prior to substrate addition measured after 10 mins by fluorescence assay relative to control; format: cell-based; conditions: A-431
Sequence of Mitogen-activated protein kinase; ERK1/ERK2 (Homo sapiens) (P27361 whole entry, looked up): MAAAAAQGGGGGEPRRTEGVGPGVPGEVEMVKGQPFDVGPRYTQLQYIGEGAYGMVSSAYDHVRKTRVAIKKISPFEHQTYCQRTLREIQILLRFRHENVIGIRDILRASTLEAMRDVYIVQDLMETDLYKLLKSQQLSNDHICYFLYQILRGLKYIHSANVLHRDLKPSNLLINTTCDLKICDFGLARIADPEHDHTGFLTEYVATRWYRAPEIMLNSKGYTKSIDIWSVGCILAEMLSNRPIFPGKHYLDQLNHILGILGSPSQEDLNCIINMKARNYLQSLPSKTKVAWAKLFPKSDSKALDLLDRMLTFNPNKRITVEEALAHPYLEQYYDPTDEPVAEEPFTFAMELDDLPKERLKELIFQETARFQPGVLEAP
Sequence of Mitogen-activated protein kinase; ERK1/ERK2 (Homo sapiens) (P28482 whole entry, looked up): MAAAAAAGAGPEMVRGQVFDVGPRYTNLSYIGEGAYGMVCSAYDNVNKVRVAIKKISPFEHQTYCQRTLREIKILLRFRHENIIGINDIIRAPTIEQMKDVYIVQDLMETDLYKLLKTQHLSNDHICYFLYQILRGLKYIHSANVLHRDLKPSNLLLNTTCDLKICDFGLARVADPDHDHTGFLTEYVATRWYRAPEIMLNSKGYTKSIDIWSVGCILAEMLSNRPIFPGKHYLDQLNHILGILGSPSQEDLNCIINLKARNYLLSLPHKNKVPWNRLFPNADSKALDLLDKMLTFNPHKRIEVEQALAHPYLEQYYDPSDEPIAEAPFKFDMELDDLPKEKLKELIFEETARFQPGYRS

Sequence of Glycogen synthase kinase-3 beta (P49841 whole entry, canonical isoform): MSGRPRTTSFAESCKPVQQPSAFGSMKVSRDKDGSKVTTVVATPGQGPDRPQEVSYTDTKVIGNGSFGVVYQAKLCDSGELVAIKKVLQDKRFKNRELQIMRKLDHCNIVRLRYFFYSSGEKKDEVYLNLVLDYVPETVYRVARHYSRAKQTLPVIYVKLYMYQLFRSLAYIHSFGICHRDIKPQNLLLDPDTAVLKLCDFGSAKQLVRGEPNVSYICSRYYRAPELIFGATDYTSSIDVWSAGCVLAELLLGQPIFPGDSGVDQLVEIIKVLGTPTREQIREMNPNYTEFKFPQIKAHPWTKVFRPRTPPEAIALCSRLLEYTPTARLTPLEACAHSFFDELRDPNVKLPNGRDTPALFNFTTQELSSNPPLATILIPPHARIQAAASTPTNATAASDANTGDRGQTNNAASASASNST
Sequence of Serine/threonine-protein kinase RAF and Dual specificity mitogen-activated protein kinase kinase 1 (Raf/MEK) (Homo sapiens) (P04049 whole entry, looked up): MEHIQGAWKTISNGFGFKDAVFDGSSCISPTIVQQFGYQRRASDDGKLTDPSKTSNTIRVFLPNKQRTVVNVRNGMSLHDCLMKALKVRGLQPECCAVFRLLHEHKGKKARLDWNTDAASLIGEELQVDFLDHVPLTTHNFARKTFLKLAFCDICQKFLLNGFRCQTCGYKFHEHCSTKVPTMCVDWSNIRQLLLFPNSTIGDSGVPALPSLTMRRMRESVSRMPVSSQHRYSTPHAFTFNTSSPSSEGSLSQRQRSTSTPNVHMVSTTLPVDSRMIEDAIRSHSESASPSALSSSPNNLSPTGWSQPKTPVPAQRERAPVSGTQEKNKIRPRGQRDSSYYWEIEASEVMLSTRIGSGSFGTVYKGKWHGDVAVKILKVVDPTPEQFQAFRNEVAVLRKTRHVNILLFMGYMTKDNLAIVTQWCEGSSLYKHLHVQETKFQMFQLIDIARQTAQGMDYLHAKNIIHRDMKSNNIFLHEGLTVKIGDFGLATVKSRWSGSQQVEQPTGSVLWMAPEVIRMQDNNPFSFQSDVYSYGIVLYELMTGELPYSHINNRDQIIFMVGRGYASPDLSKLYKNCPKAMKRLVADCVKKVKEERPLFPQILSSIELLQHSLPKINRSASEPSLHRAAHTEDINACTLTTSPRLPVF
Sequence of Serine/threonine-protein kinase RAF and Dual specificity mitogen-activated protein kinase kinase 1 (Raf/MEK) (Homo sapiens) (Q02750 whole entry, looked up): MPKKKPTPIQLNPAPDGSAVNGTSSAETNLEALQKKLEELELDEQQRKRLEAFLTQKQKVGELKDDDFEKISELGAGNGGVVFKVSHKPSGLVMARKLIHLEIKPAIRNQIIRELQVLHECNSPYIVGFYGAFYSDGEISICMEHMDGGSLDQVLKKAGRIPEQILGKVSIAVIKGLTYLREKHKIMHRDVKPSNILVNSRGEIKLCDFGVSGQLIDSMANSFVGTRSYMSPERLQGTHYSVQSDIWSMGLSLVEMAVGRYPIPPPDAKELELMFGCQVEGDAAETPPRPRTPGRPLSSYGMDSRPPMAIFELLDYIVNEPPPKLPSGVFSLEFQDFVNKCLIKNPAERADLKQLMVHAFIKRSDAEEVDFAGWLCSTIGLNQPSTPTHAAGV
Sequence of Casein kinase I isoform delta (P48730 whole entry, canonical isoform): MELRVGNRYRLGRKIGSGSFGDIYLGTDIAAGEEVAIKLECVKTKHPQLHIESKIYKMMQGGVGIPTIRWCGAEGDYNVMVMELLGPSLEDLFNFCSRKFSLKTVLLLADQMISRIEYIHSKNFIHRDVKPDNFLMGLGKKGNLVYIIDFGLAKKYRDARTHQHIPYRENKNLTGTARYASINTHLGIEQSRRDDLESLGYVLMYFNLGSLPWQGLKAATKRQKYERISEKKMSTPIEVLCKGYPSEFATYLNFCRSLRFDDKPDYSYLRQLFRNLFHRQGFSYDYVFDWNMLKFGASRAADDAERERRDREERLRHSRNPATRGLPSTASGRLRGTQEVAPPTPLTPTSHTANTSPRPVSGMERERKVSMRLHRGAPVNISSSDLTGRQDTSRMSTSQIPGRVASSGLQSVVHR
Sequence of Serine/threonine-protein kinase B-raf (Homo sapiens) (P15056 whole entry): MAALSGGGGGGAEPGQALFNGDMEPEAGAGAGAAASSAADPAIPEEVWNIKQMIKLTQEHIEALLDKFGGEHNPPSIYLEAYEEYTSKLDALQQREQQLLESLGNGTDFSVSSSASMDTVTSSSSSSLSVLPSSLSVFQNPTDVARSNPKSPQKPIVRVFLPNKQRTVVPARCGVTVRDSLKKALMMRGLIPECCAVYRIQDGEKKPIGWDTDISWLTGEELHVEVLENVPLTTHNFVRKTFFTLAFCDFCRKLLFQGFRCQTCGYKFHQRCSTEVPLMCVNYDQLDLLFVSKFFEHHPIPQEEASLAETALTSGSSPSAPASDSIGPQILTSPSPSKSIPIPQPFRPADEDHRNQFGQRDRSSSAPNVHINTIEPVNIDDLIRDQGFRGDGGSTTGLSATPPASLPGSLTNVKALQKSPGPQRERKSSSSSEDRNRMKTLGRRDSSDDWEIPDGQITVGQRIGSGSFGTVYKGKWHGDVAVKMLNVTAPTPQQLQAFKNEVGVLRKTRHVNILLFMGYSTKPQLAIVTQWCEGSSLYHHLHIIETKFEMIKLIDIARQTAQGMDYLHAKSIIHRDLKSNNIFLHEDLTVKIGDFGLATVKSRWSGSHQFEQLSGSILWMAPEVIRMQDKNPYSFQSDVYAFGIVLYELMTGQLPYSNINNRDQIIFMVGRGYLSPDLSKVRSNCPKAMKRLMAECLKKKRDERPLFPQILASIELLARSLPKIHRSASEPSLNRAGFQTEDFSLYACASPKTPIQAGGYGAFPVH

**Q.** With N=C(N)Nc1ccc(Cc2cccc(NC(=N)Nc3ccccc3)c2)cc1 as the compound, how does the IC50 (HL-60) read?
**A.** The IC50 was over 100 µM.

**Q.** And the IC50 [1]?
**A.** The IC50 was over 100 µM.

**Q.** What about the IC50 [2] of the same compound?
**A.** The IC50 was over 100 µM.

**Q.** c1cc(NC2=NCCN2)cc(Oc2ccc(NC3=NCCN3)cc2)c1 was tested. Which IC50 (HL-60) did it give?
**A.** The IC50 was over 100 µM.

**Q.** What about the IC50 [1] of the same compound?
**A.** Its IC50 is over 100 µM.

**Q.** And the IC50 [2]?
**A.** The IC50 was over 100 µM.

**Q.** How did the inhibition (HUVEC) turn out when N=C(N)Nc1cccc(C(=O)c2ccc(NC(=N)Nc3ccc(Cl)c(C(F)(F)F)c3)cc2)c1 was run?
**A.** Its inhibition is 0%.

**Q.** What about the inhibition [3] of the same compound?
**A.** The inhibition was 96%.

**Q.** What about the inhibition [4] of the same compound?
**A.** Its inhibition is 20%.

**Q.** And the Activity [5]?
**A.** Its Activity is “inactive”.

**Q.** And the inhibition [6]?
**A.** The inhibition was 21%.

**Q.** What about the IC50 (HL-60) of the same compound?
**A.** The IC50 was 22.3 µM.

**Q.** What about the IC50 [1] of the same compound?
**A.** Its IC50 is over 100 µM.

**Q.** What about the IC50 [2] of the same compound?
**A.** The IC50 was over 100 µM.

**Q.** N=C(N)Nc1cccc(Cc2ccc(NC(=N)Nc3ccc(Cl)c(C(F)(F)F)c3)cc2)c1 was tested. Which inhibition (HUVEC) did it give?
**A.** The inhibition was 17%.

**Q.** And the inhibition [3]?
**A.** The inhibition was 99%.

**Q.** And the inhibition [4]?
**A.** The inhibition was -7%.

**Q.** What about the Activity [5] of the same compound?
**A.** Its Activity is “inactive”.

**Q.** What about the inhibition [6] of the same compound?
**A.** The inhibition was 17%.

**Q.** And the IC50 (HL-60)?
**A.** The IC50 was 15.9 µM.

**Q.** What about the IC50 [1] of the same compound?
**A.** The IC50 was over 100 µM.

**Q.** And the IC50 [2]?
**A.** Its IC50 is over 100 µM.

**Q.** Which inhibition (HUVEC) does the source give for N=C(N)Nc1ccc(Oc2ccc(NC(=N)N)cc2)cc1 here?
**A.** The inhibition was 7%.

**Q.** What about the inhibition [3] of the same compound?
**A.** Its inhibition is 2%.

**Q.** And the inhibition [4]?
**A.** The inhibition was -1%.

**Q.** What about the inhibition [6] of the same compound?
**A.** The inhibition was 6%.

**Q.** What about the IC50 (HL-60) of the same compound?
**A.** Its IC50 is 88.4 µM.

**Q.** What about the IC50 [1] of the same compound?
**A.** Its IC50 is over 100 µM.

**Q.** And the IC50 [2]?
**A.** The IC50 was over 100 µM.

**Q.** How did the IC50 (HL-60) turn out when N=C(N)Nc1ccc(Cc2cccc(NC(=N)N)c2)cc1 was run?
**A.** Its IC50 is 35.1 µM.

**Q.** And the IC50 [1]?
**A.** Its IC50 is over 100 µM.

**Q.** What about the IC50 [2] of the same compound?
**A.** Its IC50 is over 100 µM.

**Q.** How did the inhibition (HUVEC) turn out when N=C(N)Nc1cccc(Oc2ccc(NC(=N)Nc3ccccc3)cc2)c1 was run?
**A.** Its inhibition is -1%.

**Q.** And the inhibition [3]?
**A.** Its inhibition is 4%.

**Q.** What about the inhibition [4] of the same compound?
**A.** Its inhibition is 1%.

**Q.** And the IC50 (HL-60)?
**A.** Its IC50 is over 100 µM.

**Q.** What about the IC50 [1] of the same compound?
**A.** Its IC50 is over 100 µM.

**Q.** What about the IC50 [2] of the same compound?
**A.** Its IC50 is over 100 µM.

**Q.** For N=C(N)Nc1ccc(Oc2cccc(NC(=N)N)c2)cc1, which inhibition (HUVEC) is on record?
**A.** The inhibition was -1%.

**Q.** What about the inhibition [3] of the same compound?
**A.** Its inhibition is 22%.

**Q.** And the inhibition [4]?
**A.** Its inhibition is -1%.

**Q.** What about the inhibition [6] of the same compound?
**A.** Its inhibition is -4%.

**Q.** And the IC50 (HL-60)?
**A.** The IC50 was 36.2 µM.

**Q.** And the IC50 [1]?
**A.** Its IC50 is over 100 µM.

**Q.** What about the IC50 [2] of the same compound?
**A.** Its IC50 is over 100 µM.

**Q.** For N=C(N)Nc1cccc(C(=O)c2ccc(NC(=N)Nc3ccccc3)cc2)c1, which IC50 (HL-60) is on record?
**A.** Its IC50 is over 100 µM.

**Q.** And the IC50 [1]?
**A.** The IC50 was over 100 µM.

**Q.** What about the IC50 [2] of the same compound?
**A.** Its IC50 is over 100 µM.

**Q.** With N=C(N)Nc1cccc(Nc2ccc(NC(=N)Nc3ccc(Cl)c(C(F)(F)F)c3)cc2)c1 as the compound, how does the inhibition (HUVEC) read?
**A.** The inhibition was -3%.

**Q.** What about the inhibition [3] of the same compound?
**A.** The inhibition was 74%.

**Q.** What about the inhibition [4] of the same compound?
**A.** The inhibition was 12%.

**Q.** What about the Activity [5] of the same compound?
**A.** Its Activity is “inactive”.

**Q.** What about the IC50 (HL-60) of the same compound?
**A.** The IC50 was 36.6 µM.

**Q.** And the IC50 [1]?
**A.** Its IC50 is over 100 µM.

**Q.** And the IC50 [2]?
**A.** The IC50 was over 100 µM.

**Q.** Which IC50 (HL-60) does the source give for CNC(=O)c1cc(Oc2ccc(NC(=O)Nc3ccc(Cl)c(C(F)(F)F)c3)cc2)ccn1 [SORAFENIB] here?
**A.** Its IC50 is 1.68 µM.

**Q.** With N=C(N)Nc1cccc(Nc2ccc(NC(=N)Nc3ccccc3)cc2)c1 as the compound, how does the IC50 (HL-60) read?
**A.** Its IC50 is over 100 µM.

**Q.** What about the IC50 [1] of the same compound?
**A.** Its IC50 is over 100 µM.

**Q.** What about the IC50 [2] of the same compound?
**A.** Its IC50 is over 100 µM.

**Q.** How did the inhibition [3] turn out when CC(=O)Nc1cccc(Oc2ccc(NC(=N)Nc3ccc(Cl)c(C(F)(F)F)c3)cc2)c1 was run?
**A.** The inhibition was 35%.

**Q.** What about the inhibition [4] of the same compound?
**A.** The inhibition was 0%.

**Q.** And the Activity [5]?
**A.** The Activity was “inactive”.

**Q.** And the inhibition [6]?
**A.** The inhibition was 8%.

**Q.** And the IC50 (HL-60)?
**A.** The IC50 was 9.11 µM.

**Q.** And the IC50 [1]?
**A.** Its IC50 is over 100 µM.

**Q.** And the IC50 [2]?
**A.** The IC50 was over 100 µM.

**Q.** With N=C(N)Nc1ccc(Cc2cccc(NC(=N)Nc3ccc(Cl)c(C(F)(F)F)c3)c2)cc1 as the compound, how does the Activity [5] read?
**A.** The Activity was “inactive”.

**Q.** And the IC50 (HL-60)?
**A.** The IC50 was 16.6 µM.

**Q.** What about the IC50 [1] of the same compound?
**A.** Its IC50 is over 100 µM.

**Q.** What about the IC50 [2] of the same compound?
**A.** Its IC50 is over 100 µM.

**Q.** With N=C(N)Nc1cccc(Cc2ccc(NC(=N)Nc3ccccc3)cc2)c1 as the compound, how does the IC50 (HL-60) read?
**A.** Its IC50 is over 100 µM.

**Q.** What about the IC50 [1] of the same compound?
**A.** Its IC50 is over 100 µM.

**Q.** What about the IC50 [2] of the same compound?
**A.** Its IC50 is over 100 µM.

**Q.** With N=C(N)Nc1cccc(Oc2ccc(NC(=N)Nc3ccc(Cl)c(C(F)(F)F)c3)cc2)c1 as the compound, how does the inhibition (HUVEC) read?
**A.** Its inhibition is 0%.

**Q.** And the inhibition [3]?
**A.** Its inhibition is 96%.

**Q.** What about the inhibition [4] of the same compound?
**A.** The inhibition was 21%.

**Q.** What about the Activity [5] of the same compound?
**A.** The Activity was “inactive”.

**Q.** And the inhibition [6]?
**A.** The inhibition was -7%.

**Q.** And the IC50 (HL-60)?
**A.** Its IC50 is 24.5 µM.

**Q.** And the IC50 [1]?
**A.** Its IC50 is over 100 µM.

**Q.** What about the IC50 [2] of the same compound?
**A.** The IC50 was over 100 µM.

**Q.** Which inhibition (HUVEC) does the source give for N=C(N)Nc1ccc(Nc2cccc(NC(=N)N)c2)cc1 here?
**A.** Its inhibition is -6%.

**Q.** And the inhibition [3]?
**A.** Its inhibition is 86%.

**Q.** What about the inhibition [4] of the same compound?
**A.** Its inhibition is 4%.

**Q.** And the IC50 (HL-60)?
**A.** The IC50 was 67.7 µM.

**Q.** What about the IC50 [1] of the same compound?
**A.** The IC50 was over 100 µM.

**Q.** What about the IC50 [2] of the same compound?
**A.** The IC50 was over 100 µM.

**Q.** For O=C(c1ccc(NC2=NCCN2)cc1)c1cccc(NC2=NCCN2)c1, which IC50 (HL-60) is on record?
**A.** The IC50 was over 100 µM.

**Q.** And the IC50 [1]?
**A.** The IC50 was over 100 µM.

**Q.** What about the IC50 [2] of the same compound?
**A.** The IC50 was over 100 µM.

**Q.** Which results are given for N=C(N)Nc1ccc(Oc2cccc(NC(=N)Nc3ccccc3)c2)cc1?
**A.** IC50 (HL-60): > 100 µM; IC50 [1]: > 100 µM; IC50 [2]: > 100 µM

**Q.** Which results are given for CC(=O)Nc1cccc(Nc2ccc(NC(=N)Nc3ccc(Cl)c(C(F)(F)F)c3)cc2)c1?
**A.** inhibition (HUVEC): 1%; inhibition [3]: 38%; inhibition [4]: 12%; Activity [5]: inactive; inhibition [6]: 12%; IC50 (HL-60): 3.96 µM; IC50 [1]: > 100 µM; IC50 [2]: > 100 µM

**Q.** How did the IC50 (HL-60) turn out when N=C(N)Nc1ccc(C(=O)c2cccc(NC(=N)N)c2)cc1 was run?
**A.** Its IC50 is 141 µM.

**Q.** And the IC50 [1]?
**A.** The IC50 was over 100 µM.

**Q.** What about the IC50 [2] of the same compound?
**A.** Its IC50 is over 100 µM.

**Q.** With c1cc(Cc2ccc(NC3=NCCN3)cc2)cc(NC2=NCCN2)c1 as the compound, how does the IC50 (HL-60) read?
**A.** Its IC50 is over 100 µM.

**Q.** And the IC50 [1]?
**A.** The IC50 was over 100 µM.

**Q.** What about the IC50 [2] of the same compound?
**A.** Its IC50 is over 100 µM.
